Converted amounts (≈) assume the structure as drawn.
Key:
[1] = tested on: Thp1 human monocytic cells; assay: Thp1 Monocyte ATP Production Assay (ATPlite); assay type: cell-based; details: for IC50: Thp1 cells, 24 hour incubation, 9-point concentration range from 10 μM to 10 nM, mean of 2 independent experiments; for potency in the Thp1 monocytic ATP assay (in words): as compared to the reference compounds
How it was run: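 Thp1 cells in glucose-free RPMI-1640 with 1% FBS were treated with compounds for 24 h at 37 °C/5% CO2, then ATP measured by ATPlite luminescence. Signal expressed as % of control viability; IC50 from 4-parameter fit, mean of two experiments.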

[2] = Aqueous solubility in FaSSIF; assay type: physicochemical; details: for solubility at 16 h: kinetic from dmso stock
[3] = molecular target: hERG (Homo sapiens (Human), UniProt Q12809); assay: hERG Ion Channel binding assay (3H astemizole displacement); details: human, membranes of HEK293 cells stably expressing hERG, pH 7.4, probe 3H astemizole (1.5 nM); 30 μM; displacement of 3H astemizole, hERG-HEK293 membranes
Chain of hERG (Q12809 whole entry): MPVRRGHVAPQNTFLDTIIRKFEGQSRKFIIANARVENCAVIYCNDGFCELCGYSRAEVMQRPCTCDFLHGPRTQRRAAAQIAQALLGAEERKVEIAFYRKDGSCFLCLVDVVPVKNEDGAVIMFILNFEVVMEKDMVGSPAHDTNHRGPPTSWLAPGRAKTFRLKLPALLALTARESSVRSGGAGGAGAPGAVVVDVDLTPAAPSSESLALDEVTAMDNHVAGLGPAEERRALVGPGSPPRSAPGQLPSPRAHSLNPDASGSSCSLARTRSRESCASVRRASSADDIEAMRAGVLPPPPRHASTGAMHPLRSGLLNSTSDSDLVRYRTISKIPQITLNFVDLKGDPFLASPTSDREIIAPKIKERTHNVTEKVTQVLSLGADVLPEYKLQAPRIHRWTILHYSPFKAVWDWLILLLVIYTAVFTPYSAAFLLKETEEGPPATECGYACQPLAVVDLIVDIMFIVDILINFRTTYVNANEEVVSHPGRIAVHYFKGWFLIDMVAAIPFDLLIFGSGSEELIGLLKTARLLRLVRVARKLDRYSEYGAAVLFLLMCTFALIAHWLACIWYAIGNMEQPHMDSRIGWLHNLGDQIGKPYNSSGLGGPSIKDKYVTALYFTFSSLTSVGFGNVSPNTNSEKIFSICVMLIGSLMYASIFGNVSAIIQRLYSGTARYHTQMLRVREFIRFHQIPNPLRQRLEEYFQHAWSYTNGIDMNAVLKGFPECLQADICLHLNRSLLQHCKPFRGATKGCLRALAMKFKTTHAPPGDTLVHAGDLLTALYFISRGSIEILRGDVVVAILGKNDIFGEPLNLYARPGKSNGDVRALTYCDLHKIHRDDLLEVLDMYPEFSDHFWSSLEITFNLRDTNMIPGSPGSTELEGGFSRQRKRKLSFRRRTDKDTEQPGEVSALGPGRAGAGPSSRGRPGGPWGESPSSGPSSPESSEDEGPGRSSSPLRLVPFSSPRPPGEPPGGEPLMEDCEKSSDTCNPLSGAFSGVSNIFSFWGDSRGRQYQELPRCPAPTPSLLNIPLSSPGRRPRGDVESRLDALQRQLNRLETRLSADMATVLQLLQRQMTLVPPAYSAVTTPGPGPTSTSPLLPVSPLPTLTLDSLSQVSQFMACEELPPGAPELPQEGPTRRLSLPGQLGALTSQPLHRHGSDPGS
How it was run: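 Membranes from stably transfected hERG-HEK293 cells incubated with 1.5 nM ³H-astemizole ± test compound in HEPES buffer pH 7.4 (0.1% BSA, 5 mM KCl, 130 mM NaCl) at 25° C for 60 min. Bound ligand measured by filtration and scintillation counting; reported as % displacement (0% none, 100% complete).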

[4] = pH 6.5, 16 hours, room temperature

SMILES: CC1(O)CCC(NS(=O)(=O)c2ccc(-c3ccc(F)cc3F)cc2)CC1 (stereo not drawn) [ABD899, reference compound]
- IC50 [1]: 200 nM
- Solubility [2, 4]: 0.06 ^(3) mg/mL
- Solubility ([2]; pH 6.8): 0.13 mg/mL (≈ 341 µM)

SMILES: CC(=O)N1CCC(CS(=O)(=O)c2ccc(-c3ccc(F)cc3F)cc2)CC1 [NASMP-01, 1-(4-(((2′,4′-Difluoro-[1,1′-biphenyl]-4-yl)sulfonyl)methyl)piperidin-1-yl)ethan-1-one]
- IC50 ([1]; Homo sapiens, THP-1): 1000 nM
- potency in the Thp1 monocytic ATP assay (in words) [1]: excellent potency
- solubility at 16 h [2, 4]: 75 µg/mL (≈ 191 µM)
- inhibition at 60 min, 30 µM [3]: 14%

SMILES: CC(=O)N1CCC(CS(=O)(=O)c2ccc(-c3ccc(C#N)cc3Cl)cc2)CC1 [NASMP-05, 4′-(((1-Acetylpiperidin-4-yl)methyl)sulfonyl)-2-chloro-[1,1′-biphenyl]-4-carbonitrile]
- IC50 ([1]; Homo sapiens, THP-1): 1100 nM
- solubility (in words) [2]: particularly good solubility
- solubility at 16 h [2, 4]: 62 µg/mL (≈ 149 µM)
- inhibition at 60 min, 30 µM [3]: 23%

SMILES: CC(=O)N1CCC(CS(=O)(=O)c2ccc(-c3ccc(Cl)cc3C#N)cc2)CC1 [NASMP-06, 4′-(((1-Acetylpiperidin-4-yl)methyl)sulfonyl)-4-chloro-[1,1′-biphenyl]-2-carbonitrile]
- IC50 ([1]; Homo sapiens, THP-1): 900 nM
- solubility (in words) [2]: particularly good solubility
- solubility at 16 h [2, 4]: 83 µg/mL (≈ 199 µM)
- inhibition at 60 min, 30 µM [3]: 35%

SMILES: CC(=O)N1CCC(CS(=O)(=O)c2ccc(-c3ccc(C(F)(F)F)cc3F)cc2)CC1 [NASMP-07, 1-(4-(((2′-Fluoro-4′-(trifluoromethyl)-[1,1′-biphenyl]-4-yl)sulfonyl)methyl)piperidin-1-yl)ethan-1-one]
- IC50 ([1]; Homo sapiens, THP-1): 800 nM
- potency in the Thp1 monocytic ATP assay (in words) [1]: excellent potency
- solubility (in words) [2]: particularly good solubility
- solubility at 16 h [2, 4]: 89 µg/mL (≈ 201 µM)
- inhibition at 60 min, 30 µM [3]: 79%

SMILES: CC(=O)N1CCC(CS(=O)(=O)c2ccc(-c3c(F)cccc3F)cc2)CC1 [NASMP-09, 1-(4-(((2′,6′-Difluoro-[1,1′-biphenyl]-4-yl)sulfonyl)methyl)piperidin-1-yl)ethan-1-one]
- IC50 ([1]; Homo sapiens, THP-1): 1400 nM
- solubility at 16 h [2, 4]: 28 µg/mL (≈ 71.2 µM)
- inhibition at 60 min, 30 µM [3]: 7%

SMILES: CC(=O)N1CCC(CS(=O)(=O)c2ccc(-c3ccc(F)cc3F)cc2C(F)(F)F)CC1 [NASMP-12, 1-(4-(((2′,4′-Difluoro-3-(trifluoromethyl)-[1,1′-biphenyl]-4-yl)sulfonyl)methyl)piperidin-1-yl)ethan-1-one]
- IC50 ([1]; Homo sapiens, THP-1): 100 nM
- potency in the Thp1 monocytic ATP assay (in words) [1]: excellent potency
- solubility (in words) [2]: particularly good solubility
- solubility at 16 h [2, 4]: 68 µg/mL (≈ 147 µM)
- inhibition at 60 min, 30 µM [3]: 35%

SMILES: CCC(=O)N1CCC(CS(=O)(=O)c2ccc(-c3ccc(F)cc3F)cc2)CC1 [NASMP-15, 1-(4-(((2′,4′-Difluoro-[1,1′-biphenyl]-4-yl)sulfonyl)methyl)piperidin-1-yl)propan-1-one]
- IC50 ([1]; Homo sapiens, THP-1): 600 nM
- potency in the Thp1 monocytic ATP assay (in words) [1]: excellent potency
- solubility (in words) [2]: particularly good solubility
- solubility at 16 h [2, 4]: 73 µg/mL (≈ 179 µM)
- inhibition at 60 min, 30 µM [3]: 45%

— patent publication US12162836B2, “N-acyl-{4-[(4-aryl-phenyl)sulfonylmethyl]piperidine} compounds and their therapeutic use” (Modern Biosciences Limited, priority 2019, dated 2024)
